For one data set, the target named is T1, HER2 (Homo sapiens, UniProt P04626).
T1 construct: purchased Carna Biosciences, Inc
Briefly: Inhibitory effect (in vitro) on HER2 phosphorylation activity. Format: biochemical. The following applies: recombinant human HER2, ATP 5 μM, 25° C. 30 minutes. The text has this:
In order to determine conditions for a method of measuring the in vitro inhibitory activity of a compound against HER2 phosphorylation activity, based on the report regarding a HER2 kinase reaction using, as a substrate, a peptide having the same sequence (5-FAM-[…]-CONH2) as that of ProfilerPro Peptide 22 of PerkinElmer (Xie H et al., PLoS One. 2011; 6(7): e21487), ProfilerPro Peptide 22 was used as a substrate. A purified recombinant human HER2 protein used in the present test was purchased from Carna Biosciences, Inc. Upon the measurement of the inhibitory activity of the compound, first, the compound of the present invention was diluted stepwise with dimethyl sulfoxide (DMSO). […] To the reaction solution, EDTA was added to a final concentration of 30 mM, so as to terminate the reaction. Finally, using LabChip (registered trademark) EZ Reader II (PerkinElmer), an unphosphorylated substrate peptide (S) and a phosphorylated peptide (P) were separated and detected according to microchannel capillary electrophoresis.

Data set [1] has as its target HER2 exon 20 insertion mutant (HER2ex20insYVMA, A775_G776insYVMA) (Homo sapiens, UniProt P04626, DUP772-775). Briefly: Inhibitory action (in vitro) against HER2 exon 20 insertion mutant phosphorylation activity. Format: biochemical. The note with it: 30 min pre-incubation, ATP 200 μM, 25° C. 220 minutes. The text has this: In order to determine conditions for a method of measuring the in vitro inhibitory activity of a compound against HER2 exon 20 insertion mutant phosphorylation activity, as in the case of HER2, ProfilerPro Peptide 22 was used as a substrate. A purified recombinant human HER2 exon 20 insertion mutant (A775_G776insYVMA) protein is shown in SEQ ID NO: 7, and was purchased from SignalChem. Upon the measurement of the inhibitory activity of the compound, first, the compound of the present invention was diluted stepwise with dimethyl sulfoxide (DMSO). Subsequently, the HER2 exon 20 insertion mutant protein and the compound of the present invention in DMSO solution (final concentration of DMSO: 5%) were added into a buffer for the kinase reaction (13.5 mM Tris (pH 7.5), 2 mM dithiothreitol, and 0.009% Tween 20), and the obtained mixture was then pre-incubated at 25° C. for 30 minutes. Thereafter, the substrate peptide (final concentration: 1 μM), manganese chloride (final concentration: 25 mM), magnesium chloride (final concentration: 20 mM), and ATP (final concentration: 200 μM) were added into the reaction mixture, and the thus obtained mixture was then incubated at 25° C. for 220 minutes, so that the kinase reaction was carried out. To the reaction solution, EDTA was added to a final concentration of 30 mM, so as to terminate the reaction. Finally, using LabChip (registered trademark) EZ Reader II (PerkinElmer), an unphosphorylated substrate peptide (S) and a phosphorylated peptide (P) were separated and detected according to microchannel capillary electrophoresis.

A further data set deals with SK-BR-3 cells. The data set can be described thus: Growth inhibitory activity against HER2 expressing cell line SK-BR-3. The format is cell-based. The note with it: Homo sapiens, SK-BR-3, 72 h; 3 days, CellTiter-Glo 2.0. Here is the method: SK-BR-3 cells as a HER2 overexpressing human breast cancer cell line were suspended in a McCoy's 5a medium (manufactured by Life Technologies) supplemented with 10% fetal bovine serum. The cell suspension was seeded in each well of a 384-well flat-bottom microplate, and was then cultured in a 5% carbon dioxide gas-containing culture vessel at 37° C. for 1 day. Thereafter, the compound of the present invention was dissolved in DMSO, and the compound was diluted to 500 times the final concentration in DMSO. The compound in the DMSO solution was diluted with DMSO solution or the medium used in the suspension of the cells, and the obtained solution was then added to each well of the culture plate so that the final concentration of DMSO was 0.2%. The obtained mixture was further cultured in the 5% carbon dioxide gas-containing culture vessel at 37° C. for 3 days. After completion of the culture for 3 days in the presence of the compound, the cells were counted using CellTiter-Glo 2.0 (manufactured by Promega), and the growth inhibition percentage was then calculated according to the following equation. […] Growth inhibitory percentage (%)=(C−T)/(C)×100 T: Emission intensity from the well to which the test compound was added C: Emission intensity from the well to which the test compound was not added

The target in a further data set is Ba/F3-HER2insYVMA cells (Homo sapiens, UniProt P04626, DUP772-775, cells depend on it). The data set can be described thus: Growth inhibitory activity against HER2 exon 20 insertion mutant expressing cell line. The note with it: 3 days, CellTiter-Glo 2.0, read-out: HER2ex20insYVMA cell growth inhibitory activity IC50 value. The format is cell-based, mouse. As to the method:
Growth inhibitory activity against the HER2 exon 20 insertion mutant was measured using Ba/F3 cells that were a mouse B lymphocyte precursor cell line, into which a human HER2 exon 20 insertion mutant gene had been introduced. The Ba/F3 cells were maintained in an RPMI-1640 medium (Thermo Fisher Scientific) supplemented with 10% fetal bovine serum (FBS), 100 U/mL penicillin, 100 μg/mL streptomycin (Thermo Fisher Scientific) and 1 ng/mL mouse interleukin-3 (mIL-3) (CST).
Upon evaluation of cell growth inhibitory activity, the Ba/F3-HER2insYVMA cells were suspended in an RPMI-1640 medium supplemented with 10% FBS, 100 U/mL penicillin, and 100 μg/mL streptomycin. The cell suspension was seeded in each well of a 96-well flat-bottom microplate, and was then cultured in a 5% carbon dioxide gas-containing culture vessel at 37° C. for 1 day. The compound of the present invention was dissolved in DMSO, and was then diluted with DMSO or the medium used in the suspension of the cells. The obtained solution was then added to each well of the culture plate, so that the final concentration of DMSO became 0.2%. The obtained mixture was further cultured in the 5% carbon dioxide gas-containing culture vessel at 37° C. for 3 days. After completion of the culture for 3 days in the presence of the compound, the cells were counted using CellTiter-Glo 2.0 (manufactured by Promega), and the growth inhibition percentage was then calculated according to the following equation. […] Growth inhibitory percentage (%)=(C−T)/(C)×100 T: Emission intensity from the well to which the test compound was added C: Emission intensity from the well to which the test compound was not added

The test system of the next data set is NCI-N87 cells. The data set can be described thus: Growth inhibitory activity against HER2 expressing cell line NCI-N87. The note with it: Homo sapiens, NCI-N87, 72 h; 3 days, CellTiter-Glo 2.0. Format: cell-based. As to the method: NCI-N87 cells as a HER2 overexpressing human stomach cancer cell line (American Type Culture Collection, Cat No. ATCC (registered trademark) CRL-5822) were suspended in an RPMI640 medium (Wako Pure Chemical Industries, Ltd.) supplemented with 10% fetal bovine serum. Subsequently, the cell suspension was seeded in each well of a 96-well flat-bottom microplate, and was then cultured in a 5% carbon dioxide gas-containing culture vessel at 37° C. for 1 day. Thereafter, the compound of the present invention was dissolved in DMSO, and the compound was diluted to 1000 times the final concentration in DMSO. The compound in the DMSO solution was diluted with the medium used in the suspension of the cells, and the obtained solution was then added to each well of the culture plate, so that the final concentration of DMSO became 0.1%. Regarding a control well, DMSO was diluted with the medium used in the suspension of the cells, and the obtained solution was then added to each well of the culture plate, so that the final concentration of DMSO became 0.1%. After addition of a drug solution, the obtained mixture was further cultured in the 5% carbon dioxide gas-containing culture vessel at 37° C. for 3 days. After completion of the culture for 3 days in the presence of the compound, the cells were counted using CellTiter-Glo 2.0 (manufactured by Promega) in accordance with the protocols recommended by Promega. The growth inhibition percentage was calculated according to the following equation. […] Growth inhibitory percentage (%)=(C−T)/(C)×100 T: Emission intensity from the well to which the test compound was added C: Emission intensity from the well to which the test compound was not added

Data set [2] is described as follows: Evaluation of oral absorbability. The following applies: mouse; plasma, oral 50 mg/kg/day, BALB/cA mice. Format: in vivo, BALB/cA mice. As to the method: The compound of the present invention was suspended or dissolved in 0.5% HPMC aqueous solution and 0.1 N hydrochloric acid, and the obtained suspension or solution was orally administered to BALB/cA mice (CLEA Japan, Inc.) at a dose of 50 mg/kg/day. At 0.5, 1, 2, 4 and 6 hours after completion of the oral administration, blood was collected from the facial vein over time, so as to obtain plasma. The concentration of the compound in the obtained plasma was measured by LC-MS/MS, and the oral absorbability of the present compound was evaluated.

The test system of another data set is p-gp or Bcrp. The following applies: Non Patent Literature 5; cited from earlier work.
The conditions of data set [3]: non-clinical tests, Non Patent Literature 5; cited from earlier work.
The next data set has as its system brain metastatic cancer. The note with it: clinical tests, Non Patent Literatures 6-9; cited from earlier work.

Chain of Ba/F3-HER2insYVMA cells (P04626 with tags, fused parts or gaps DUP772-775): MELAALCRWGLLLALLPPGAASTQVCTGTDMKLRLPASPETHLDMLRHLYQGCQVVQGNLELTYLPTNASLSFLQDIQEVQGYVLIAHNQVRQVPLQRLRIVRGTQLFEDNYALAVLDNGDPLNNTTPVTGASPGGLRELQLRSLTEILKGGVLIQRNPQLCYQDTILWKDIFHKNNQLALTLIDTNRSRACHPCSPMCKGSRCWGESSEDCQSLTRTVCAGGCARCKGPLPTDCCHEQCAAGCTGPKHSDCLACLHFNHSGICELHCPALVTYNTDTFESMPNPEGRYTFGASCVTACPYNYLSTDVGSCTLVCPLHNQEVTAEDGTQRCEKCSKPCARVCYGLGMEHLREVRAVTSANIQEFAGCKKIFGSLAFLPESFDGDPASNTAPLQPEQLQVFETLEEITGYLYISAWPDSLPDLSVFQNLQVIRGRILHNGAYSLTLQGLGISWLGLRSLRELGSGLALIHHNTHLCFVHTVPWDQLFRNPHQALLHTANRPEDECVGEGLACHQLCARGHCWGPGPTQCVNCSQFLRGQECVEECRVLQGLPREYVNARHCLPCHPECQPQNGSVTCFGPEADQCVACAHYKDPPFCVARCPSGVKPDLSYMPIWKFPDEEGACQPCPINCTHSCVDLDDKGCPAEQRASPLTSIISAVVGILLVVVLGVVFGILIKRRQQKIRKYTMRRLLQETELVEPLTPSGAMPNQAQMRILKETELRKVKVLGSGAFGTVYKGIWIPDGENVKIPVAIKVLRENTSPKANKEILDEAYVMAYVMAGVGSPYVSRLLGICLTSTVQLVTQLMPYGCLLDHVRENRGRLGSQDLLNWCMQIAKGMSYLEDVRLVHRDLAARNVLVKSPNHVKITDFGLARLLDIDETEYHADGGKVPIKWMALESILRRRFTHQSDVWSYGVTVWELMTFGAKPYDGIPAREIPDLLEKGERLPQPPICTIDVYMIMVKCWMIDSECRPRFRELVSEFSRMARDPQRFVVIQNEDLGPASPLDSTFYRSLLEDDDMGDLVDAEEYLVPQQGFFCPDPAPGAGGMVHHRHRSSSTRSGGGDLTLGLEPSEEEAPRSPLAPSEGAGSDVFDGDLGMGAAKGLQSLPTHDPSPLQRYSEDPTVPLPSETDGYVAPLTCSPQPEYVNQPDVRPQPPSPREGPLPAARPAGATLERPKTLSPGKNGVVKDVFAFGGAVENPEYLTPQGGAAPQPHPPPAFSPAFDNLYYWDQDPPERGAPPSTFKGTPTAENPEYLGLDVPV
Chain of HER2 exon 20 insertion mutant (HER2ex20insYVMA, A775_G776insYVMA) (P04626 with tags, fused parts or gaps DUP772-775): as above
T1 sequence (P04626 23-1255): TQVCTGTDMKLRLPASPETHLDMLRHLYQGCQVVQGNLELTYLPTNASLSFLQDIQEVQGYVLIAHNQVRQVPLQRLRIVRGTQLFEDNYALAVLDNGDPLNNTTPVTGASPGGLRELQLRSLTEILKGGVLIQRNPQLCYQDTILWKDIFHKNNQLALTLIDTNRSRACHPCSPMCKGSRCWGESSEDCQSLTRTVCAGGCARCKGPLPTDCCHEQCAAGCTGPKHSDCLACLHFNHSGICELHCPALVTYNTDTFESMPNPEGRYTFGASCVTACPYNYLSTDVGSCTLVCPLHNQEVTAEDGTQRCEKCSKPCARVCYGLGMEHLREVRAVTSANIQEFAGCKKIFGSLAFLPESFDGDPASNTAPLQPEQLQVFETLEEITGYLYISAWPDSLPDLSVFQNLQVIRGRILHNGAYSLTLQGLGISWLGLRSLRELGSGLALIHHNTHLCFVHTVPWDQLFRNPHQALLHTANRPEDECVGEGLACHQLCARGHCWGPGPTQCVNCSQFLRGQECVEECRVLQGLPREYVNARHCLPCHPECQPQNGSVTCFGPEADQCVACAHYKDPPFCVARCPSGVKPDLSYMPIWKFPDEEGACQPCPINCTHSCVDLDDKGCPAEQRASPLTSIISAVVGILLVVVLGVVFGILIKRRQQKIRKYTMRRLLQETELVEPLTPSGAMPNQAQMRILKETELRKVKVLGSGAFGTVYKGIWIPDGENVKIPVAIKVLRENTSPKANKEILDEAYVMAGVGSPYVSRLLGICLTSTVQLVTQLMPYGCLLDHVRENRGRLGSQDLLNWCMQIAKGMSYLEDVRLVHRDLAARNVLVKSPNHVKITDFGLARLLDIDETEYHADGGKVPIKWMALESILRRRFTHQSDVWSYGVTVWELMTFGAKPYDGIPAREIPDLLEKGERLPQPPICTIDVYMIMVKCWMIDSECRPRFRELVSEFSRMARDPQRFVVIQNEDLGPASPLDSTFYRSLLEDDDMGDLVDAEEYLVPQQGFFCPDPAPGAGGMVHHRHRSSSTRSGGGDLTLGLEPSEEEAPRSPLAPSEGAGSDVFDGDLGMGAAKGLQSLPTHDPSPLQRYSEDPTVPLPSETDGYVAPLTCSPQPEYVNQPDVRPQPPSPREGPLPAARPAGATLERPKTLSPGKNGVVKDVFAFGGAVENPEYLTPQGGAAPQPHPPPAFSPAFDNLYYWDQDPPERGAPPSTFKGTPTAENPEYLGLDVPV

On to `C=CC(=O)N1C[C@H](n2c(C#CC)c(C(=O)N[C@H](C)c3ccc(F)cc3F)c3c(N)ncnc32)C[C@@H]1C` [Example 7, 7-((3R,5S)-1-acryloyl-5-methylpyrrolidin-3-yl)-4-amino-N—((R)-1-(2,4-difluorophenyl)ethyl)-6-(prop-1-yn-1-yl)-7H-pyrrolo[2,3-d]pyrimidine-5-carboxamide], for which the IC50 came to 4.9 nM at HER2, 0.39 nM in [1], 12 nM in the data set with SK-BR-3 cells and 11.1 nM with NCI-N87 cells. Further, the GI50 at Ba/F3-HER2insYVMA cells turned out to be 40 nM. In addition, in data set [2], the AUC(0-t) turned out to be 15 µM·h.
Take `CCOc1cc2ncc(C#N)c(Nc3ccc(OCc4ccccn4)c(Cl)c3)c2cc1NC(=O)/C=C/CN(C)C` [Neratinib]: the “substrate of p-gp or Bcrp” value in the data set with p-gp or Bcrp is recorded as “substrates of p-gp or Bcrp”. The brain penetration properties result in [3] was “limited”. Further, the “effects against brain metastatic cancer” value in the data set with brain metastatic cancer was “sufficient effects of these agents could not be obtained”.
As to `CS(=O)(=O)CCNCc1ccc(-c2ccc3ncnc(Nc4ccc(OCc5cccc(F)c5)c(Cl)c4)c3c2)o1` [Lapatinib], the “substrate of p-gp or Bcrp” value in the data set with p-gp or Bcrp is on record as “substrates of p-gp or Bcrp”. The brain penetration properties entry in data set [3] is given as “limited”. For the same compound, the “effects against brain metastatic cancer” value with brain metastatic cancer is “sufficient effects of these agents could not be obtained”.
As to `C=CC(=O)N1C[C@H](n2c(C#CC(C)C)c(C(=O)NC(C)(C)c3ccccc3F)c3c(N)ncnc32)C[C@@H]1C` [Example 15, 7-((3R,5S)-1-acryloyl-5-methylpyrrolidin-3-yl)-4-amino-N-(2-(2-fluorophenyl)propan-2-yl)-6-(3-methylbut-1-yn-1-yl)-7H-pyrrolo[2,3-d]pyrimidine-5-carboxamide], the half-maximal inhibitory concentration (IC50) on HER2 is 4.6 nM; in data set [1] it was 0.42 nM; in the data set with SK-BR-3 cells, 7 nM; with NCI-N87 cells it was 11.6 nM. The GI50 on Ba/F3-HER2insYVMA cells worked out at 40 nM. Moreover, the exposure AUC(0-t) in data set [2] is 34 µM·h.

The values above are taken from patent US11078207B2, “Substituted pyrrolo[2,3-d]pyrimidines as HER2 inhibitors” (TAIHO PHARMACEUTICAL CO., LTD., priority 2019, dated 2021).
